Values quoted from earlier work as cited in patent US20090175803A1 (priority 2008, published 2009).

Key:
[1] = test system: PGE2 production from LPS-stimulated human peripheral blood mononuclear cells; conditions: LPS-stimulated human PBMC
[2] = test system: carcinogen-induced preneoplastic lesions; conditions: mouse mammary organ culture
[3] = peroxyl-radical scavenging
PPARA = target: T1, PPARA (Homo sapiens, UniProt Q07869)
T1 sequence (Q07869 1-468): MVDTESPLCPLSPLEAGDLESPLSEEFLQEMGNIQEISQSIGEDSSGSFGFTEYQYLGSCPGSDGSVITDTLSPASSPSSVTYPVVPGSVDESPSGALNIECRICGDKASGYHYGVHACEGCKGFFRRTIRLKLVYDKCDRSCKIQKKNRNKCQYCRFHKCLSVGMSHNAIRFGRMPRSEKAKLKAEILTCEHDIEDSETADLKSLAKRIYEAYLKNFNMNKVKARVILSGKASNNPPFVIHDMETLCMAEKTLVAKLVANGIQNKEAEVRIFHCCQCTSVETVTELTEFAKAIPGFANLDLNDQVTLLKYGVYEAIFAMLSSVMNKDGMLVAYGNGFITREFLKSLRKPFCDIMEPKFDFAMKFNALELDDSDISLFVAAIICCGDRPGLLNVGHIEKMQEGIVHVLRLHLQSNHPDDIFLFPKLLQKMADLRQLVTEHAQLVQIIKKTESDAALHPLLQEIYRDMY

## COc1cc(/C=C/c2ccc(O)cc2)cc(OC)c1 [Pterostilbene, 4-[(E)-2-(3,5-dimethoxyphenyl)ethenyl]phenol]
[1]
  PGE2 production: inhibited PGE2 production
[2]
  inhibition of carcinogen-induced preneoplastic lesions: significant inhibition
Animal studies
  blood glucose: can lower blood glucose
In vivo studies
  lipid and glucose lowering effects: possesses lipid and glucose lowering effects
Human gastric cancer
  cell proliferation and apoptosis: inhibit cell proliferation and induce apopotosis in a concentration- and time-dependent manner
[3]
  total reactive antioxidant potential: 237 ± 58 µM
PPARA
  PPARA agonism: acts as a PPARA agonist
